Laboratory results: US20150031674A1, “SERINE/THREONINE KINASE INHIBITORS” (GENENTECH, INC., priority 2013, published 2015)

Tests used:
[1] = tested on: group I PAKs in EBC1 cells (MEK1 phosphorylation at S298); test: Cellular PAK IC50 Assay: MEK1 phosphorylation at S298 by HTRF; assay type: cell-based; details: Homo sapiens, EBC-1, 2 h treatment, media containing 0.1% FBS, phospho-MEK1 (S298) HTRF
Procedure: Cellular PAK IC50 Assay Protocol
Group I PAKs (PAK1-3) are activated upon binding to the Rho GTPases, Rac1 and Cdc42. Activated group I PAKs phosphorylate MEK1 at Serine 298 (S298), one of the two sites in the catalytic domain that is important for stable association between Raf and MEK1 and subsequent MAPK activation. The inhibition of group I PAKs in EBC1 cells is assessed by detecting changes in the level of MEK1 phosphorylation at S298 using homogenous time-resolved fluorescence (HTRF). Inhibitory activity was estimated by treating 2×10^4 EBC1 cells for 2 h with PAK inhibitors in media containing 0.1% FBS. Following inhibitor treatment, cells were lysed with 25 μL of 1× cellular kinase lysis buffer (Cisbio) containing 1× cellular kinase blocking reagent (Cisbio). Cellular lysis was carried out at 4° C. for 2 h with constant shaking before lysate (16 μL) was transferred to white 384-well ProxiPlates™ (Perkin Elmer). Anti-total MEK1 antibody labeled with Europium cryptate donor (1 ng/well) (Cell Signaling Technologies catalog number 2352) and anti-phospho MEK1 (S298) antibody labeled with d2 acceptor (Cell Signaling Technologies catalog number 9128) (10 ng/well) were prepared in 1× detection buffer (CisBio) and added to each well of the assay plate and allowed to incubate at RT overnight. The following day the fluorescence emission from each well was measured in EnVision® (Perkin Elmer) at an excitation of 330 nm and dual emission wavelengths of 615 nm and 665 nm. The signal in each well at 665 nm was multiplied by 10,000 and divided by the signal in the same well at 615 nm to obtain a ratio. Ratio values ([665·10,000]÷615) were plotted as a function of the concentration of compound to determine IC50 values.

[2] = target: human recombinant PAK1-KD protein (Homo sapiens, UniProt Q13153); test: PAK1-KD (Kinase Domain) IC50 Zlyte Assay (FRET peptide substrate phosphorylation); details: Z'-LYTE, Biological Example 1
human recombinant PAK1-KD protein, sequence (Q13153 270-521 limits assumed): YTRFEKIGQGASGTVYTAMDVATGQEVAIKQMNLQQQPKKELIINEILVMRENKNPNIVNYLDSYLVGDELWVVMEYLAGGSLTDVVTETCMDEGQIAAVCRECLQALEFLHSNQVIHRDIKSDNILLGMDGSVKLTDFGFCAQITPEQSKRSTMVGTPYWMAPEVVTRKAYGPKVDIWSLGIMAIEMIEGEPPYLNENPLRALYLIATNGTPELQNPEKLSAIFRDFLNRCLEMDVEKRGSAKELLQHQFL

Compound	IC50 [1]	Ki [2]
CCNc1ncc2cc(-c3ccc(-c4cncc(C)n4)cc3Cl)c(=O)n(CCC3CNCCO3)c2n1 (single isomer, unassigned) [Example I-22]	63.5 nM	8.9 nM
CCNc1ncc2cc(-c3ccc(-c4cncc(C)n4)cc3Cl)c(=O)n(CCN3CCNCC3)c2n1 [Example I-4, 6-(2-Chloro-4-(6-methylpyrazin-2-yl)phenyl)-2-(ethylamino)-8-(2-(piperazin-1-yl)ethyl)pyrido[2,3-d]pyrimidin-7(8H)-one]	96 nM	6.4 nM
CCNc1ncc2cc(-c3ccc(-c4cncc(C)n4)cc3Cl)c(=O)n(C[C@H]3CC[C@H](NC)CC3)c2n1 [Example I-17, 6-(2-Chloro-4-(6-methylpyrazin-2-yl)phenyl)-2-(ethylamino)-8-(((1r,4r)-4-(methylamino)cyclohexyl)methyl)pyrido[2,3-d]pyrimidin-7(8H)-one]	96 nM	4.8 nM
CCNc1ncc2cc(-c3ccc(-c4cncc(C)n4)cc3Cl)c(=O)n(CCCN)c2n1 [Example I-1, 8-(3-Aminopropyl)-6-[2-chloro-4-(6-methylpyrazin-2-yl)phenyl]-2-(ethylamino)pyrido[2,3-d]pyrimidin-7-one]	249 nM	8.23 nM
CCNc1ncc2cc(-c3ccc(-c4ncccc4C)cc3Cl)c(=O)n(C[C@H]3CC[C@H](N)CC3)c2n1 [Example I-16, 8-(((1r,4r)-4-Aminocyclohexyl)methyl)-6-(2-chloro-4-(3-methylpyridin-2-yl)phenyl)-2-(ethylamino)pyrido[2,3-d]pyrimidin-7(8H)-one]	75.6 nM	7.2 nM
CCNc1ncc2cc(-c3ccc(-c4cccc(C)n4)cc3C)c(=O)n(CCOC3CNC3)c2n1 [Example I-31, 8-(2-(azetidin-3-yloxy)ethyl)-2-(ethylamino)-6-(2-methyl-4-(6-methylpyridin-2-yl)phenyl)pyrido[2,3-d]pyrimidin-7(8H)-one]	127 nM	4.6 nM
CCNc1ncc2cc(-c3ccc(-c4cccc(C)n4)cc3Cl)c(=O)n(C[C@H]3CC[C@H](N)CC3)c2n1 [Example I-15, 8-(((1r,4r)-4-Aminocyclohexyl)methyl)-6-(2-chloro-4-(6-methylpyridin-2-yl)phenyl)-2-(ethylamino)pyrido[2,3-d]pyrimidin-7(8H)-one]	46.8 nM	
Cc1cncc(-c2ccc(-c3cc4cnc(N)nc4n(C[C@H]4CC[C@H](N)CC4)c3=O)c(Cl)c2)n1 [Example I-9, 2-Amino-8-(((1r,4r)-4-aminocyclohexyl)methyl)-6-(2-chloro-4-(6-methylpyrazin-2-yl)phenyl)pyrido[2,3-d]pyrimidin-7(8H)-one]	358 nM	14 nM
CCNc1ncc2cc(-c3ccc(-c4cncc(C)n4)cc3Cl)c(=O)n(CCCCN)c2n1 [Example I-2, 8-(4-Aminobutyl)-6-[2-chloro-4-(6-methylpyrazin-2-yl)phenyl]-2-(ethylamino)pyrido[2,3-d]pyrimidin-7-one]	146 nM	
CCNc1ncc2cc(-c3ccc(-c4cncc(C)n4)cc3Cl)c(=O)n(CCCC(N)=O)c2n1 [Example I-3, 4-[6-[2-Chloro-4-(6-methylpyrazin-2-yl)phenyl]-2-(ethylamino)-7-oxo-pyrido[2,3-d]pyrimidin-8-yl]butanamide]	506 nM	47.4 nM
CCNc1ncc2cc(-c3ccc(-c4cncc(C)n4)cc3Cl)c(=O)n(C[C@H]3CC[C@H](N)CC3)c2n1 [Example I-5, 8-(((1r,4r)-4-aminocyclohexyl)methyl)-6-(2-chloro-4-(6-methylpyrazin-2-yl)phenyl)-2-(ethylamino)pyrido[2,3-d]pyrimidin-7(8H)-one]	147 nM	
CCNc1ncc2cc(-c3ccc(-c4cncc(C)n4)cc3Cl)c(=O)n(CCOCCN)c2n1 [Example I-12, 8-(2-(2-Aminoethoxy)ethyl)-6-(2-chloro-4-(6-methylpyrazin-2-yl)phenyl)-2-(ethylamino)pyrido[2,3-d]pyrimidin-7(8H)-one]	131 nM	4.3 nM
CCNc1ncc2cc(-c3ccc(-c4cncc(C)n4)cc3Cl)c(=O)n(C3COC4(CCNC4)C3)c2n1 (stereo not shown) [Example I-75, 6-[2-Chloro-4-(6-methylpyrazin-2-yl)phenyl]-2-(ethylamino)-8-(1-oxa-7-azaspiro[4.4]nonan-3-yl)pyrido[2,3-d]pyrimidin-7-one]	197 nM	20.3 nM
Cc1cccc(-c2ccc(-c3cc4cnc(NCC(F)F)nc4n(CCN4CCNCC4)c3=O)c(Cl)c2)n1 [Example I-89, 6-[2-Chloro-4-(6-methyl-2-pyridyl)phenyl]-2-(2,2-difluoroethylamino)-8-(2-piperazin-1-ylethyl)pyrido[2,3-d]pyrimidin-7-one]	57.7 nM	7.8 nM
CCNc1ncc2cc(-c3ccc(-c4cncc(C)n4)cc3Cl)c(=O)n(CCC3CCCN3)c2n1 (single isomer, unassigned) [Example I-19]	286 nM	26.8 nM
CCNc1ncc2cc(-c3ccc(-c4cncc(C)n4)cc3Cl)c(=O)n(C[C@H]3CC[C@H](N(C)C)CC3)c2n1 [Example I-10, 6-(2-Chloro-4-(6-methylpyrazin-2-yl)phenyl)-8-(((1r,4r)-4-(dimethylamino)cyclohexyl)methyl)-2-(ethylamino)pyrido[2,3-d]pyrimidin-7(8H)-one]	274 nM	21.3 nM
Cc1cncc(-c2ccc(-c3cc4cnc(N)nc4n(CC4OCC(N)CO4)c3=O)c(Cl)c2)n1 (stereo not shown) [Example I-56, 2-Amino-8-[((2s,5s)-5-amino-1,3-dioxan-2-yl)methyl]-6-[2-chloro-4-(6-methylpyrazin-2-yl)phenyl]pyrido[2,3-d]pyrimidin-7-one and 2-amino-8-[((2r,5r)-5-amino-1,3-dioxan-2-yl)methyl]-6-[2-chloro-4-(6-methylpyrazin-2-yl)phenyl]pyrido[2,3-d]pyrimidin-7-one]	426 nM	18.6 nM
Cc1cccc(-c2ccc(-c3cc4cnc(N)nc4n(CCC4CNCCO4)c3=O)c(Cl)c2)n1 (racemic) [Example I-127, 2-Amino-6-[2-chloro-4-(6-methyl-2-pyridyl)phenyl]-8-(2-morpholin-2-ylethyl)pyrido[2,3-d]pyrimidin-7-one]	38.2 nM	3.8 nM
CCNc1ncc2cc(-c3ccc(-c4cccc(C)n4)cc3Cl)c(=O)n(CCOCCN)c2n1 [Example I-64, 8-[2-(2-Aminoethoxy)ethyl]-6-[2-chloro-4-(6-methyl-2-pyridyl)phenyl]-2-(ethylamino)pyrido[2,3-d]pyrimidin-7-one]	35.7 nM	2.8 nM
CCNc1ncc2cc(-c3ccc(-c4cccc(C)n4)cc3C)c(=O)n(CCCC(N)=O)c2n1 [Example I-70, 4-[2-(Ethylamino)-6-[2-methyl-4-(6-methyl-2-pyridyl)phenyl]-7-oxo-pyrido[2,3-d]pyrimidin-8-yl]butanamide]	289 nM	17.4 nM
CCNc1ncc2cc(-c3ccc(-c4cncc(C)n4)cc3Cl)c(=O)n(CC(C)OC3CNC3)c2n1 (single isomer, unassigned) [Example I-91, 8-[2-(Azetidin-3-yloxy)propyl]-6-[2-chloro-4-(6-methylpyrazin-2-yl)phenyl]-2-(ethylamino)pyrido[2,3-d]pyrimidin-7-one]	108 nM	7.1 nM
CCNc1ncc2cc(-c3ccc(-c4cncc(C)n4)cc3Cl)c(=O)n(CC(=O)N3CCNCC3)c2n1 [Example I-8, 6-(2-Chloro-4-(6-methylpyrazin-2-yl)phenyl)-2-(ethylamino)-8-(2-oxo-2-(piperazin-1-yl)ethyl)pyrido[2,3-d]pyrimidin-7(8H)-one]	1500 nM	30.9 nM
CCNc1ncc2cc(-c3ccc(-c4cncc(C)n4)cc3Cl)c(=O)n(CC3CCNCC3)c2n1 [Example I-6, 6-(2-Chloro-4-(6-methylpyrazin-2-yl)phenyl)-2-(ethylamino)-8-(piperidin-4-ylmethyl)pyrido[2,3-d]pyrimidin-7(8H)-one]	170 nM	
CCNc1ncc2cc(-c3ccc(-c4cncc(C)n4)cc3Cl)c(=O)n(CCOC3CCCNC3)c2n1 (stereo not shown) [Example I-14, 6-(2-Chloro-4-(6-methylpyrazin-2-yl)phenyl)-2-(ethylamino)-8-(2-(piperidin-3-yloxy)ethyl)pyrido[2,3-d]pyrimidin-7(8H)-one]	246 nM	14.8 nM
CCNc1ncc2cc(-c3ccc(-c4cncc(C)n4)cc3Cl)c(=O)n(CCOC3CCNC3)c2n1 (stereo not shown) [Example I-13, 6-(2-Chloro-4-(6-methylpyrazin-2-yl)phenyl)-2-(ethylamino)-8-(2-(pyrrolidin-3-yloxy)ethyl)pyrido[2,3-d]pyrimidin-7(8H)-one]	180 nM	5.8 nM
